# Test results reported in patent publication US6858645B2, “Tartrate salts of (R) -3-N,N- dicyclobutylamino-8-fluoro-3,4-dihydro-2H-1- benzopyran-5-carboxamide” (AstraZeneca AB, priority 1997, dated 2005).
# How the values were obtained:
# [1] = thermogravimetric measurement
# [2] = Moisture sorption analysis (absorption and desorption), VTI microbalance, as a measure of physical stability; format: physicochemical; details: 25° C.
# Method: Determination of Stability […] The moisture sorption analysis, absorption and desorption, respective was performed using a VTI microbalance, Model […] (VTI Corporation, USA) linked to an IBM PC. The relative humidity (RH) within the balance was monitored using a dew point analyser. […] The desorption profile was also obtained.
# [3] = water firmly bound in crystal lattice
# [4] = background statement on the salt disclosed in WO 95/11891; cited from earlier work
Structure (SMILES),initial weight loss (thermogravimetric) [1] [% w/w],RH at which significant uptake of moisture was recorded ([2]; RH steps of 5%) [%],moisture absorbed ([2]; RH of 90%),desorption profile ([2]; desorption after exposure up to 90% RH),heating temperature up to which crystal water is not released [3],hygroscopicity / physical stability during manufacturing and storage [4],behaviour at high relative humidity ([2]; 85% relative humidity),moisture taken up ([2]; 85% relative humidity)
"NC(=O)c1ccc(F)c2c1C[C@@H](N(C1CCC1)C1CCC1)CO2.O.O=C(O)C(O)C(O)C(=O)O [Example 2, (R)-3-N,N-dicyclobutylamino-8-fluoro-3,4-dihydro-2H-1-benzopyran-5-carboxamide Hydrogen (2R,3R)-Tartrate Monohydrate]",4.104,≥ 60,2.5 % (w/w),the moisture uptake is reversible,up to 70 °C,–,–,–
"Cl.NC(=O)c1ccc(F)c2c1C[C@@H](N(C1CCC1)C1CCC1)CO2 [HCl salt, (R)-3-N,N-dicyclobutylamino-8-fluoro-3,4-dihydro-2H-1-benzopyran-5-carboxamide, reference compound]",–,–,–,–,–,hygroscopic and thus physically unstable,exhibits deliquescence,approximately 20 % w/w
